Source: ChEMBL document CHEMBL4138191, “Organic arsenicals target thioredoxin reductase followed by oxidative stress and mitochondrial dysfunction resulting in apoptosis” (Eur J Med Chem, 2018)
Active and inactive are the calls of the source. The calls are words filed in the database; no cut-off is given here.

Key:
HL-60 [1] = assay: Induction of ROS generation in human HL60 cells at 1.5 uM after 24 hrs in presence of ROS inhibitor NAC by DCFH-DA staining-based flow cytometry; format: functional, cell-based
HL-60 [2] = assay: Induction of ROS generation in human HL60 cells at 1.5 uM after 24 hrs by DCFH-DA staining-based flow cytometry; format: functional, cell-based
HL-60 [3] = assay: Induction of apoptosis in human HL60 cells assessed as necrotic cells at 0.75 to 1.5 uM after 24 hrs by Annexin V-FITC/propidium iodide staining-based flow cytometry; format: functional
Liver [4] = assay: Induction of mitochondrial dysfunction in Wistar rat liver assessed as swelling at 20 uM in presence of calcium related inhibitor cyclosporine A; format: functional; conditions: mitochondria
HL-60 [5] = assay: Induction of apoptosis in human HL60 cells assessed as abnormal cellular morphology at 0.75 to 1.5 uM after 24 hrs by Hoechst 33342 staining-based laser scanning confocal microscopic analysis; format: functional, cell-based
Liver [6] = assay: Induction of mitochondrial dysfunction in Wistar rat liver assessed as swelling at 20 uM in presence of calcium related inhibitor ruthenium red; format: functional; conditions: mitochondria
MCF7 [7] = assay: Cytotoxicity against human MCF7 cells after 24 hrs by MTT assay; format: functional, cell-based; conditions: for IC50: MCF7, 24 h
HL-60 [8] = assay: Induction of apoptosis in human HL60 cells assessed as apoptotic body formation at 0.75 to 1.5 uM after 24 hrs by Hoechst 33342 staining-based laser scanning confocal microscopic analysis; format: functional, cell-based
Homo sapiens = species: Homo sapiens; assay: Effect on glutathione peroxidase catalytic activity in human HL60 cells; format: cell-based
HL-60 [9] = assay: Induction of ROS generation in human HL60 cells at 1.5 uM after 24 hrs in presence of antioxidant lipoic acid by DCFH-DA staining-based flow cytometry; format: functional, cell-based
HL-60 [10] = assay: Induction of cell death in human HL60 cells at 1 to 1.5 uM after 24 hrs in presence of antioxidant vitamin E by trypan blue assay; format: functional, cell-based
[11] = biological target: T1, Thioredoxin reductase 1, cytoplasmic (Homo sapiens) (UniProt Q16881); assay: Inhibition of TrxR in human HL60 cells assessed as residual activity at 2 times IC50 using thioredoxin as substrate up to 24 hrs measured for 5 mins by UV-Vis spectrophotometric analysis relative to control; format: cell-based
T1 sequence (whole entry): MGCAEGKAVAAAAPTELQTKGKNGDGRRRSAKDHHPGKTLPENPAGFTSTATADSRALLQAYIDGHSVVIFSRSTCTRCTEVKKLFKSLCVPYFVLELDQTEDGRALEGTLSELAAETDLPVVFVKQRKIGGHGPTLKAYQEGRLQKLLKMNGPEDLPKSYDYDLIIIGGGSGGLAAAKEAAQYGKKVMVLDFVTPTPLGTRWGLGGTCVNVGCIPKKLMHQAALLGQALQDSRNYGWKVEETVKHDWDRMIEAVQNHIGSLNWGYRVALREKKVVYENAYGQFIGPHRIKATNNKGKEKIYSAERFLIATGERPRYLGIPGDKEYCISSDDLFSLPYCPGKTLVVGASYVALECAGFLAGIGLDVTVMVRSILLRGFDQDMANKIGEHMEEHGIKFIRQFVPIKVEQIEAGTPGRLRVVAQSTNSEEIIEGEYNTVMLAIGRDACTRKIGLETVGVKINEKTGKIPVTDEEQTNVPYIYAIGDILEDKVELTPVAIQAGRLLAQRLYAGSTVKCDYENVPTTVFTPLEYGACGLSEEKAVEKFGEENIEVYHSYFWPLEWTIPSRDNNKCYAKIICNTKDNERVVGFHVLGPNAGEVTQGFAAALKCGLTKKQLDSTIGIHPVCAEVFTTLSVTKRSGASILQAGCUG

HL-60 [12] = assay: Induction of cell death in human HL60 cells at 1 to 1.5 uM after 24 hrs in presence of antioxidant resveratrol by trypan blue assay; format: functional, cell-based
SGC-7901 [13] = assay: Cytotoxicity against human SGC7901 cells after 24 hrs by MTT assay; format: functional, cell-based; conditions: for IC50: SGC-7901, 24 h
HL-60 [14] = assay: Induction of mitochondrial dysfunction in human HL60 cells assessed as increase in cytochome c levels in cytosol at 1.5 uM after 24 hrs by ELISA relative to control; format: functional
HL-60 [15] = assay: Cytotoxicity against human HL60 cells after 24 hrs by MTT assay; format: functional, cell-based; conditions: for IC50: HL-60, 24 h
HL-60 [16] = assay: Induction of apoptosis in human HL60 cells assessed as cell nuclear shrinkage at 0.75 to 1.5 uM after 24 hrs by Hoechst 33342 staining-based laser scanning confocal microscopic analysis; format: functional
HL-60 [17] = assay: Induction of apoptosis in human HL60 cells assessed as chromatin condensation at 0.75 to 1.5 uM after 24 hrs by Hoechst 33342 staining-based laser scanning confocal microscopic analysis; format: functional, cell-based
MCF7 [18] = assay: Cytotoxicity against human MCF7 cells after 48 hrs by MTT assay; format: functional, cell-based; conditions: for IC50: MCF7, 48 h
GES1 = assay: Cytotoxicity against human GES-1 cells after 24 hrs by MTT assay; format: cell-based; conditions: for IC50: Homo sapiens, GES1, 24 h; for Activity: human, ges1, 24 h
HL-60 [19] = assay: Induction of apoptosis in human HL60 cells assessed as DNA incision in bulk of cells at 0.75 to 1.5 uM after 24 hrs by Hoechst 33342 staining-based laser scanning confocal microscopic analysis; format: functional, cell-based
HL-60 [20] = assay: Induction of apoptosis in human HL60 cells assessed as less cell quantity at 0.75 to 1.5 uM after 24 hrs by Hoechst 33342 staining-based laser scanning confocal microscopic analysis; format: functional
HL-60 [21] = assay: Induction of apoptosis in human HL60 cells assessed as incomplete cell membrane at 0.75 to 1.5 uM after 24 hrs by Hoechst 33342 staining-based laser scanning confocal microscopic analysis; format: functional
HL-60 [22] = assay: Induction of mitochondrial membrane potential loss in human HL60 cells at 1 uM after 24 hrs by JC-1 staining-based flow cytometry; format: functional, cell-based
HL-60 [23] = assay: Induction of cell death in human HL60 cells at 1 to 1.5 uM after 24 hrs in presence of […] BSO by MTT assay; format: functional, cell-based
Liver [24] = assay: Induction of mitochondrial dysfunction in Wistar rat liver assessed as swelling up to 30 uM for 60 mins; format: functional; conditions: mitochondria
HL-60 [25] = assay: Induction of apoptosis in human HL60 cells assessed as apoptotic cells at 0.75 to 1.5 uM after 24 hrs by Annexin V-FITC/propidium iodide staining-based flow cytometry; format: functional
HL-60 [26] = assay: Reduction of mitochondrial membrane potential in human HL60 cells assessed as decrease in ATP levels at 0.75 to 1.5 uM after 24 hrs; format: functional, cell-based
[27] = biological target: T1, Thioredoxin reductase 1, cytoplasmic (Homo sapiens); assay: Inhibition of TrxR in human HL60 cells using thioredoxin as substrate up to 24 hrs measured for 5 mins by UV-Vis spectrophotometric analysis; format: cell-based
[28] = biological target: T1, Thioredoxin reductase 1, cytoplasmic (Homo sapiens); assay: Inhibition of TrxR in human HL60 cells assessed as residual activity at 1.5 using thioredoxin as substrate measured for 5 mins by UV-Vis spectrophotometric analysis; format: cell-based
HL-60 [29] = assay: Induction of cell death in human HL60 cells at 1 to 1.5 uM after 24 hrs in presence of antioxidant DTT by trypan blue assay; format: functional, cell-based
SGC-7901 [30] = assay: Cytotoxicity against human SGC7901 cells after 48 hrs by MTT assay; format: functional, cell-based; conditions: for IC50: SGC-7901, 48 h

| SMILES | Activity (HL-60 [1]) | Activity (HL-60 [2]) | Activity (HL-60 [3]) | Activity (Liver [4]) | Activity (HL-60 [5]) | Activity (Liver [6]) | Activity (MCF7 [7]) | IC50 (MCF7 [7]) [µM] | Activity (HL-60 [8]) | Activity (Homo sapiens) | Activity (HL-60 [9]) | Activity (HL-60 [10]) | Activity [11] [%] | Activity (HL-60 [12]) | Activity (SGC-7901 [13]) | IC50 (SGC-7901 [13]) [µM] | fold change (FC) (HL-60 [14]) | Activity (HL-60 [15]) | IC50 (HL-60 [15]) [µM] | Activity (HL-60 [16]) | other results |
| --- | --- | --- | --- | --- | --- | --- | --- | --- | --- | --- | --- | --- | --- | --- | --- | --- | --- | --- | --- | --- | --- |
| O=C(Nc1ccc([As]2SCCCS2)cc1)c1ccccc1O | inactive | Active | <=0.2% | inactive | Active | inactive | Dose-dependent effect | 11.9 | Active | inactive | inactive | Active | 20 | Active | Dose-dependent effect | 14.5 | 2 | Dose-dependent effect | 0.84 | Active | Activity (HL-60 [17]): Active; Activity (MCF7 [18]): Dose-dependent effect; IC50 (MCF7 [18]): 7.89 µM; IC50 (GES1): 13.4 µM; Activity (GES1): Dose-dependent effect; Activity (HL-60 [19]): Active; Activity (HL-60 [20]): Active; Activity (HL-60 [21]): Active; Activity (HL-60 [22]): Active; Activity (HL-60 [23]): Active; Activity (Liver [24]): Active; Activity (HL-60 [25]): 40%; Activity (HL-60 [26]): Active; inhibition [27]: Dose-dependent effect; inhibition [28]: Dose-dependent effect; Activity (HL-60 [29]): inactive; Activity (SGC-7901 [30]): Dose-dependent effect; IC50 (SGC-7901 [30]): 6.75 µM |
| Oc1ccccc1/C=N/c1ccc([As]2SCCCS2)cc1 | inactive | Active | <=0.2% | inactive | Active | inactive | Dose-dependent effect | 5.7 | Active | inactive | inactive | Active | 20 | Active | Dose-dependent effect | 7.69 | 2 | Dose-dependent effect | 0.94 | Active | Activity (HL-60 [17]): Active; Activity (MCF7 [18]): Dose-dependent effect; IC50 (MCF7 [18]): 2.44 µM; IC50 (GES1): 5.99 µM; Activity (GES1): Dose-dependent effect; Activity (HL-60 [19]): Active; Activity (HL-60 [20]): Active; Activity (HL-60 [21]): Active; Activity (HL-60 [22]): Active; Activity (HL-60 [23]): Active; Activity (Liver [24]): Active; Activity (HL-60 [25]): 40%; Activity (HL-60 [26]): Active; inhibition [27]: Dose-dependent effect; inhibition [28]: Dose-dependent effect; Activity (HL-60 [29]): inactive; Activity (SGC-7901 [30]): Dose-dependent effect; IC50 (SGC-7901 [30]): 4.05 µM |
